SMILES strings stand for the structures.

In one test the test system is Human hepatic cancer cells HepG2. The test can be described thus: TG production inhibiting activity (14C-acetic acid incorporation into TG) in HepG2 cells. The test is classed as cell-based. As to conditions: Homo sapiens, HepG2; group criterion, alternatives: IC50 at least 10 μM and less than 100 μM, or at least 5% and less than 30% inhibition at 1 μM, or at least 30% and less than 50% inhibition at 10 μM. The procedure:
Human hepatic cancer cells HepG2 were inoculated into a 24-well plate (Costar No. 3524) at 4×10^4 cells/well, and 1 ml of medium (eRDF medium containing 10% bovine serum (Kyokuto Chemical Co.)) was used for 6 day culturing with 5% CO2 at 37° C. After drawing off the supernatant medium, the cells were freshly rinsed with 1 ml of PBS(−) buffer solution (Takara Shuzo) and drawn off. This procedure was repeated twice and then 1 ml of fresh medium (eRDF medium) was added.
6-(benzofuran-2-yl)-3,5-dimethyl-4-hydroxy-2H-pyran-2-one (Example 2) was dissolved in dimethylsulfoxide (DMSO) to prepare a 20 mM sample stock solution. A diluted solution was obtained by diluting the sample solution with DMSO.
To the cells prepared above there were added the sample stock solution or its diluted solution at 5 μl per well and 10 μl of ^14C-acetic acid solution (a solution of Amersham Code No. CFA13 diluted 4.4-fold with PBS(−) buffer), and culturing was carried out for one day with 5% CO2 at 37° C.
After the culturing was completed, the culture solution was removed, and 1 ml of extraction solution (a mixture of n-hexane and isopropyl alcohol at 2:1) was added for extraction treatment on the lipid components in the cells. After the treatment, the extract containing the obtained lipid components was air-dried, the residue was redissolved in 20 μl of a mixed solution of n-hexane and ethyl acetate at 9:1, and the solution was spotted on a thin-layer chromatography plate (S319, Tokyo Kasei) and developed by thin-layer chromatography with the mixed solution mentioned above. After air-drying, the lipid components were colored with iodine vapor, the portion corresponding to TG was cut out, and the amount of TG biosynthesized was measured with a liquid scintillation counter.
The term IC50 denotes the concentration that gives 50% inhibition. A high value points to weaker potency. In turn, `Cc1c(-c2cc3cc(OCc4nccs4)ccc3o2)oc(=O)c(C)c1O` [Example 60, 4-hydroxy-3,5-dimethyl-6-(5-(2-thiazolylmethoxy)benzofuran-2-yl)-2H-pyran-2-one] gave an IC50 of 10 to 100 µM. Consider `Cc1c(O)c(Oc2ccccc2)c(-c2cc3ccccc3o2)oc1=O` [Example 67, 6-(benzofuran-2-yl)-4-hydroxy-3-methyl-5-phenoxy-2H-pyran-2-one], for which the IC50 was in the range of 10 to 100 µM. Still for that read-out and setting: next, `CC=CCc1c(-c2cc3ccccc3o2)oc(=O)c(C)c1O` [Example 68, 6-(benzofuran-2-yl)-5-(2-butenyl)-4-hydroxy-3-methyl-2H-pyran-2-one]: 10 to 100 µM.

`Cc1c(-c2cc3ccccc3o2)oc(=O)c(C)c1OC(=O)c1ccc(O)nc1` [Example 74, 6-(benzofuran-2-yl)-3,5-dimethyl-4-(6-hydroxynicotinoyloxy)-2H-pyran-2-one] gave a half-inhibitory concentration (IC50) of 10 to 100 µM. With `Cc1c(-c2cc3cc(OCc4ccc(Cl)cc4)ccc3o2)oc(=O)c(C)c1O` [Example 79, 6-(5-(4-chlorobenzyloxy)benzofuran-2-yl)-3,5-dimethyl-4-hydroxy-2H-pyran-2-one], the concentration for half-maximal inhibition (IC50) fell in the range of 10 to 100 µM.

In the case of `Cc1c(-c2cc3cc(OCc4ccccc4Br)ccc3o2)oc(=O)c(C)c1O` [Example 81, 6-(5-(2-bromobenzyloxy)benzofuran-2-yl)-3,5-dimethyl-4-hydroxy-2H-pyran-2-one], the IC50 is 10 to 100 µM. Still for that read-out and setting: the same measure for `Cc1c(-c2cc3cc(OCc4cccc(Br)c4)ccc3o2)oc(=O)c(C)c1O` [Example 83, 6-(5-(3-bromobenzyloxy)benzofuran-2-yl)-3,5-dimethyl-4-hydroxy-2H-pyran-2-one]: 10 to 100 µM; for `Cc1c(-c2cc3cc(OCc4ccccn4)ccc3o2)oc(=O)c(C)c1O` [Example 87, 3,5-dimethyl-4-hydroxy-6-(5-(2-pyridylmethoxy)benzofuran-2-yl)-2H-pyran-2-one]: 10 to 100 µM. In the case of `Cc1c(-c2cc3cc(OCC4CCCCN4C)ccc3o2)oc(=O)c(C)c1O` (centres unmarked) [Example 95, 3,5-dimethyl-4-hydroxy-6-(5-(1-methylpiperidin-2-ylmethoxy)benzofuran-2-yl)-2H-pyran-2-one], the half-maximal inhibitory concentration (IC50) was 10 to 100 µM. Same read-out and setting: the same measure for `Cc1c(-c2cc3cc(OC(CN(C)C)CN(C)C)ccc3o2)oc(=O)c(C)c1O` [Example 107, 6-(5-(1,3-bis(dimethylamino)-2-propoxy)benzofuran-2-yl)-3,5-dimethyl-4-hydroxy-2H-pyran-2-one]: 10 to 100 µM; for `Cc1c(-c2cc3cc(OCCN4CCOCC4)ccc3o2)oc(=O)c(C)c1O` [Example 115, 3,5-dimethyl-4-hydroxy-6-(5-(2-(morpholin-4-yl)ethoxy)benzofuran-2-yl)-2H-pyran-2-one]: 10 to 100 µM; for `Cc1c(-c2cc3cc(OCc4ccc(C(F)(F)F)cc4)ccc3o2)oc(=O)c(C)c1O` [Example 124, 3,5-dimethyl-4-hydroxy-6-(5-(4-(trifluoromethyl)benzyloxy)benzofuran-2-yl)-2H-pyran-2-one]: 10 to 100 µM. Still for that read-out and setting: the same measure for `Cc1c(-c2cc3cc(OCC4CCCC4)ccc3o2)oc(=O)c(C)c1O` [Example 126, 6-(5-(cyclopentylmethoxy)benzofuran-2-yl)-3,5-dimethyl-4-hydroxy-2H-pyran-2-one]: 10 to 100 µM.

Staying with this test, now noted: Homo sapiens, HepG2; group criterion, alternatives: IC50 less than 10 μM, or at least 30% inhibition at 1 μM, or at least 50% inhibition at 10 μM.
`Cc1c(-c2cc3cc(OCc4ccccc4)ccc3o2)oc(=O)c(C)c1OC(=O)c1ccncc1` [Example 56, 6-(5-benzyloxybenzofuran-2-yl)-3,5-dimethyl-4-isonicotinoyloxy-2H-pyran-2-one] came in with a 50% inhibitory concentration (IC50) below 10 µM. Same read-out and setting: the same measure for `CCc1c(-c2cc3cc(OCc4ccccc4)ccc3o2)oc(=O)c(C)c1O` [Example 57, 6-(5-benzyloxybenzofuran-2-yl)-5-ethyl-4-hydroxy-3-methyl-2H-pyran-2-one]: below 10 µM; for `CC(=O)Oc1c(C)c(-c2cc3cc(OCc4nccs4)ccc3o2)oc(=O)c1C` [Example 59, 4-acetyloxy-3,5-dimethyl-6-(5-(2-thiazolylmethoxy)benzofuran-2-yl)-2H-pyran-2-one]: below 10 µM; for `Cc1c(-c2cc3ccccc3o2)oc(=O)c(C)c1OC(=O)CCc1ccccc1` [Example 61, 6-(benzofuran-2-yl)-3,5-dimethyl-4-(3-phenylpropionyloxy)-2H-pyran-2-one]: below 10 µM. `Cc1c(-c2cc3ccccc3o2)oc(=O)c(C)c1OC(=O)c1ccco1` [Example 62, 6-(benzofuran-2-yl)-3,5-dimethyl-4-(2-furoyloxy)-2H-pyran-2-one] gave an IC50 below 10 µM. Consider `Cc1c(-c2cc3ccccc3o2)oc(=O)c(C)c1OC(=O)c1cccnc1` [Example 63, 6-(benzofuran-2-yl)-3,5-dimethyl-4-nicotinoyloxy-2H-pyran-2-one], for which the IC50 was below 10 µM. As to `CC(=O)NC(CC(=O)N1CCOCC1)C(=O)Oc1c(C)c(-c2cc3ccccc3o2)oc(=O)c1C` (centres unmarked) [Example 64, 6-(benzofuran-2-yl)-3,5-dimethyl-4-(2-acetylamino-4-(morpholin-4-yl)-4-oxobutyryloxy)-2H-pyran-2-one], the IC50 was below 10 µM.

Molecule `CC(=O)Oc1c(C)c(-c2cc3cc(Br)ccc3o2)oc(=O)c1C` [Example 65, 4-acetyloxy-6-(5-bromobenzofuran-2-yl)-3,5-dimethyl-2H-pyran-2-one] yielded an IC50 below 10 µM. The same measure, in the same setting: the same measure for `Cc1c(O)c(CC2CCCC2)c(-c2cc3ccccc3o2)oc1=O` [Example 66, 6-(benzofuran-2-yl)-5-cyclopentylmethyl-4-hydroxy-3-methyl-2H-pyran-2-one]: below 10 µM; for `Cc1c(-c2cc3ccccc3o2)oc(=O)c(C)c1C(=O)OC1CCC(=O)N1` (centres unmarked) [Example 70, 6-(benzofuran-2-yl)-3,5-dimethyl-4-(2-pyrrolidon-5-ylcarboxy)-2H-pyran-2-one]: below 10 µM; for `Cc1c(-c2cc3ccccc3o2)oc(=O)c(C)c1OC(=O)CNC(=O)OC(C)(C)C` [Example 71, 6-(benzofuran-2-yl)-4-(2-(t-butoxycarbonylamino)acetyloxy)-3,5-dimethyl-2H-pyran-2-one]: below 10 µM. The same measure, in the same setting: the same measure for `COc1ccc(C(=O)Oc2c(C)c(-c3cc4ccccc4o3)oc(=O)c2C)c(OC)c1` [Example 72, 6-(benzofuran-2-yl)-4-(2,4-dimethoxybenzoyloxy)-3,5-dimethyl-2H-pyran-2-one]: below 10 µM. `Cc1c(-c2cc3ccccc3o2)oc(=O)c(C)c1OC(=O)c1cccc(N(C)C)c1` [Example 75, 6-(benzofuran-2-yl)-3,5-dimethyl-4-(3-dimethylaminobenzoyloxy)-2H-pyran-2-one]: the half-inhibitory concentration (IC50) is below 10 µM. Take `CC(=O)Nc1ccc(C(=O)Oc2c(C)c(-c3cc4ccccc4o3)oc(=O)c2C)cc1` [Example 76, 4-(4-(acetylamino)benzoyloxy)-6-(benzofuran-2-yl)-3,5-dimethyl-2H-pyran-2-one]: the IC50 was below 10 µM. On the same count and under the same terms, next, `Cc1c(-c2cc3cc(OCc4ccccc4F)ccc3o2)oc(=O)c(C)c1O` [Example 78, 3,5-dimethyl-6-(5-(2-fluorobenzyloxy)benzofuran-2-yl)-4-hydroxy-2H-pyran-2-one]: below 10 µM. Still for that read-out and setting: next, `Cc1c(-c2cc3cc(OCc4cccnc4)ccc3o2)oc(=O)c(C)c1O` [Example 89, 3,5-dimethyl-4-hydroxy-6-(5-(3-pyridylmethoxy)benzofuran-2-yl)-2H-pyran-2-one]: below 10 µM; `Cc1c(-c2cc3cc(OCC4CCCN(C)C4)ccc3o2)oc(=O)c(C)c1O` (centres unmarked) [Example 97, 3,5-dimethyl-4-hydroxy-6-(5-(1-methylpiperidin-3-ylmethoxy)benzofuran-2-yl)-2H-pyran-2-one]: below 10 µM. The same measure, in the same setting: the same measure for `Cc1c(-c2cc3cc(OCc4ccc(C(=O)O)cc4)ccc3o2)oc(=O)c(C)c1O` [Example 117, 6-(5-(4-carboxybenzyloxy)benzofuran-2-yl)-3,5-dimethyl-4-hydroxy-2H-pyran-2-one]: below 10 µM; for `Cc1c(-c2cc3cc(OCc4ccccc4C(F)(F)F)ccc3o2)oc(=O)c(C)c1O` [Example 120, 3,5-dimethyl-4-hydroxy-6-(5-(2-(trifluoromethyl)benzyloxy)benzofuran-2-yl)-2H-pyran-2-one]: below 10 µM; for `Cc1c(-c2cc3cc(OCc4cccc(C(F)(F)F)c4)ccc3o2)oc(=O)c(C)c1O` [Example 122, 3,5-dimethyl-4-hydroxy-6-(5-(3-(trifluoromethyl)benzyloxy)benzofuran-2-yl)-2H-pyran-2-one]: below 10 µM. On to `Cc1ccc(COc2ccc3oc(-c4oc(=O)c(C)c(O)c4C)cc3c2)cc1C` [Example 134, 6-(5-(3,4-dimethylbenzyloxy)benzofuran-2-yl)-3,5-dimethyl-4-hydroxy-2H-pyran-2-one], for which the 50% inhibitory concentration (IC50) was below 10 µM. On the same count and under the same terms, next, `Cc1c(-c2cc3cc(OCc4cccs4)ccc3o2)oc(=O)c(C)c1O` [Example 138, 3,5-dimethyl-4-hydroxy-6-(5-((2-thienyl)methoxy)benzofuran-2-yl)-2H-pyran-2-one]: below 10 µM.

Source of the values: patent publication US6589984B1, “Benzofurylpyrone derivatives” (Teijin Limited, priority 1998, dated 2003).
